Test results reported in patent US7217735B1, “Methods and compositions for enhancing delivery of therapeutic agents to tissues” (priority 1999, dated 2007).

What was measured:
[1] = system: patient ovarian tumors; assay: Paclitaxel efflux from tumor histocultures; assay type: in vitro ADME, human
[2] = system: FaDu xenograft tumors; assay: Paclitaxel efflux from tumor histocultures; assay type: in vitro ADME, human
[3] = system: Pgp-positive patient tumors; assay: Paclitaxel accumulation by Pgp status; assay type: in vitro ADME, human; details: 12,000 nM
Procedure: The expression of Pgp was measured by immunohistochemical methods, using procedures described previously (Toth K et al. (1994) Am J Pathol 144:227–236). Briefly, tissue sections were de-waxed and rehydrated sequentially in xylene, ethanol and water. Tissue sections were boiled in a 0.1 M citrate buffer, pH 6.0, in a microwave oven, then cooled and washed in phosphate-buffered saline (PBS). The tissue sections were incubated with Dako blocking solution for 10 min and subsequently with the following antibody solutions for 2 hr: a mouse anti-human Pgp antibody (JSB-1, 1:200 dilution) and a rabbit antihuman Pgp polyclonal antibody (ab-1, 1:100 dilution). […] The incubation was carried out in a humidified chamber at room temperature. The antibodies were diluted in PBS containing 5 mg/ml bovine serum albumin. For negative controls, we used mouse IgG as the primary antibody. […] After washing with PBS, the tissue sections were covered with the linker solution, and then with peroxidase-conjugated streptavidin solution. After washing twice with PBS, tissue sections were incubated for 5 to 7 minutes with diaminobenzidine and counterstained with hematoxylin.
The statistical significance of the differences between groups was analyzed by the two-tailed unpaired Student's t-test.

[4] = system: FaDu xenograft tumor histocultures; assay: [3H]paclitaxel penetration by autoradiography; assay type: in vitro ADME, human; details: 120 nM
Procedure: The autoradiographic method was as described previously (Lesser G J et al. (1995) Cancer Chemother Pharmacol 37:173–178). […] Tissue samples were mounted on cryostat chucks with embedding matrix (O.C.T. Compound, Miles Inc., Ellchart, Ind.) and cut into 10 μm thick sections in a cryostat at −20° C. […] The slides containing the tissue sections were placed against tritium-sensitive film (Ultrofilm) in an X-ray cassette and exposed for one to two weeks at room temperature. The films were developed for 3–5 minutes at room temperature (D-19 Developer), placed in a stop bath for 30 seconds, immersed in fixer for 3 minutes and exposed to running room temperature water for 15 minutes. The films were then rinsed in Photo-flo 200 and allowed to air-dry. Separately, the tissue section slides were stained with hematoxylin and eosin.
The threshold for the autoradiographic image was adjusted to minimize the background signal.

[5] = system: FaDu xenograft tumor histocultures; assay: Apoptotic cell fraction in paclitaxel-treated histocultures (Example 1); assay type: cell-based, human
Procedure: The fractions of stromal tissue and tumor cells in each histoculture were measured using image analysis. Briefly, stromal and tumor cells of a 100× magnification field were outlined with the computer mouse. The sizes of each of these regions were determined via image analysis by counting the number of pixels in the region. […] Apoptotic cells were determined based on morphological changes in tumor cells such as chromatin condensation and margination, disappearance of nucleoli, formation of membrane blebs, apoptotic bodies and/or cell shrinkage (Kerr J F R et al. (1994) Cancer 73:2013). […] For each tumor piece, 50 to 100 images were processed, and the fractions of the tumor represented by tumor cells, stromal tissue, and interstitial space were calculated.

[6] = system: FaDu tumor histocultures; assay: Apoptotic fraction and cell density with or without apoptosis-inducing pretreatment, in vitro; assay type: cell-based, human; design: Cell density: unit not given here
Procedure: Drug treatment was as previously described.
Two studies were performed.

[7] = system: patient ovarian tumors; assay: Paclitaxel uptake in tumor histocultures
Procedure: (§1) The specimens were washed with culture medium for three times and dissected into about 1 mm^3 fragments under sterile conditions. The culture medium consisted of a 1:1 mixture of MEM/DMEM for patient tumors, MEM for FaDu xenografts, and RPMI1640 for PC3 xenografts, supplemented with 9% heat-inactivated FBS, 2 mM glutamine, 0.1 mM non-essential amino acids (only for MEM/DMEM), 90:g/ml gentamicin and 90:g/ml cefotaxime sodium. Five histoculture fragments were placed on a 1 cm^2 piece of presoaked collagen gel and incubated with 4 ml culture medium in 6-well plates. After 2 to 4 days, tumor histocultures were used to study the kinetics of drug penetration.
(§2) At predetermined times, 100 μl of medium was taken from each well and the histocultures were removed from the plates. The histocultures were blot-dried on a filter paper and their weights were measured. One hundred 1 of medium or tumor samples were mixed with 0.5 ml of Solvable tissue/gel solubilizer, incubated at 50° C. in an oven overnight, and analyzed for total radioactivity using liquid scintillation counting. […] Drug concentration in tissue was calculated as (drug amount) divided by (tissue weight) and was expressed in molar terms.
(§3) The study design of experiments using patient tumors was dictated by the size of the specimens. On some occasions, specimens from an individual patient were only sufficient to study drug uptake and efflux at one or more but not all drug concentrations. A total of 7 head and neck tumors and 3 ovarian tumors were used. For the FaDu xenograft tumor, specimens from individual animals were sufficiently large that each tumor was used for studying uptake and efflux at all four drug concentrations.
The statistical significance of the differences among patient (head and neck and ovarian, n=6) and FaDu (n=3) tumors, at equal initial medium concentrations, were analyzed by the two-tailed unpaired Student's t-test.

[8] = system: FaDu xenograft tumors; assay: Paclitaxel uptake in tumor histocultures
Source text: FaDu cells were obtained from American Type Culture Collection (Rockville, Mass.). MCF7 cells were obtained from Dr. Kenneth Cowan at the National Cancer Institute. Cells were harvested from subconfluent cultures using trypsin and resuspended in fresh medium before plating. Cells with greater than 90% viability, as determined by trypan blue exclusion, were used for tumor implantation. Cells were centrifuged and resuspended in Matrigel (1:1 v/v). […] The tumor establishment was achieved by subcutaneously injecting 10^6 cells (0.1–0.2 ml) with a 18 gauge needle at left and right sides of the upper back. The tumor was removed when it reached a size of 0.5 to 1 g and used for experiments.
as §1, §2
For the FaDu xenograft tumor, specimens from individual animals were sufficiently large that each tumor was used for studying uptake and efflux at all four drug concentrations.

[9] = system: patient head and neck tumors; assay: Paclitaxel efflux from tumor histocultures
Procedure: as §1, §2, §3
After replacing the drug-containing medium with drug-free medium, the drug concentration remaining in histocultures at 24 and 72 hours post-treatment were analyzed to determine the time to reach 50% of the pseudo steady state level (T1/2,efflux). The statistical significance of the differences among patient (head and neck and ovarian, n=6) and FaDu (n=3) tumors, at equal initial medium concentrations, were analyzed using a unpaired t-test.

[10] = initial Cmedium 120 nM for 24 hr, at 24 hr post-treatment
[11] = initial Cmedium 120 nM for 24 hr, at 72 hr post-treatment
[12] = initial Cmedium 1,200 nM for 24 hr
[13] = initial Cmedium 1,200 nM for 24 hr, at 24 hr post-treatment
[14] = initial Cmedium 1,200 nM for 24 hr, at 72 hr post-treatment
[15] = 10 nM [3H]paclitaxel, 4 hr, with pretreatment by 1:M nonradiolabeled paclitaxel
[16] = 10 nM [3H]paclitaxel, 4 hr, without pretreatment
[17] = 10 nM [3H]paclitaxel, 16 hr, with pretreatment by 1:M nonradiolabeled paclitaxel
[18] = 10 nM [3H]paclitaxel, 16 hr, without pretreatment
[19] = 10 nM [3H]paclitaxel, 24 hr, with pretreatment by 1:M nonradiolabeled paclitaxel
[20] = 10 nM [3H]paclitaxel, 24 hr, without pretreatment
[21] = 10 nM [3H]paclitaxel, 32 hr, with pretreatment by 1:M nonradiolabeled paclitaxel
[22] = 10 nM [3H]paclitaxel, 32 hr, without pretreatment
[23] = 10 nM [3H]paclitaxel, 48 hr, with pretreatment by 1:M nonradiolabeled paclitaxel
[24] = 10 nM [3H]paclitaxel, 48 hr, without pretreatment
[25] = 10 nM [3H]paclitaxel, 72 hr, with pretreatment by 1:M nonradiolabeled paclitaxel
[26] = 10 nM [3H]paclitaxel, 72 hr, without pretreatment
[27] = 50 nM [3H]paclitaxel, 4 hr, with pretreatment by 1:M nonradiolabeled paclitaxel
[28] = 50 nM [3H]paclitaxel, 4 hr, without pretreatment
[29] = 50 nM [3H]paclitaxel, 16 hr, with pretreatment by 1:M nonradiolabeled paclitaxel
[30] = 50 nM [3H]paclitaxel, 16 hr, without pretreatment
[31] = 50 nM [3H]paclitaxel, 24 hr, with pretreatment by 1:M nonradiolabeled paclitaxel
[32] = 50 nM [3H]paclitaxel, 24 hr, without pretreatment
[33] = 50 nM [3H]paclitaxel, 32 hr, with pretreatment by 1:M nonradiolabeled paclitaxel
[34] = 50 nM [3H]paclitaxel, 32 hr, without pretreatment
[35] = 50 nM [3H]paclitaxel, 48 hr, with pretreatment by 1:M nonradiolabeled paclitaxel
[36] = 50 nM [3H]paclitaxel, 48 hr, without pretreatment
[37] = 50 nM [3H]paclitaxel, 72 hr, with pretreatment by 1:M nonradiolabeled paclitaxel
[38] = 50 nM [3H]paclitaxel, 72 hr, without pretreatment
[39] = 50 nM x 24 hr, 24 hr after initiation of treatment
[40] = 50 nM x 24 hr, 36 hr after initiation of treatment
[41] = 600 nM x 1 hr, 23 hr later 50 nM x 12 hr, 24 hr after initiation of treatment
[42] = 600 nM x 1 hr, 23 hr later 50 nM x 12 hr, 36 hr after initiation of treatment

For CC(=O)O[C@H]1C(=O)[C@@]2(C)[C@H]([C@H](OC(=O)c3ccccc3)[C@]3(O)C[C@H](OC(=O)[C@H](O)[C@@H](NC(=O)c4ccccc4)c4ccccc4)C(C)=C1C3(C)C)[C@]1(OC(C)=O)CO[C@@H]1C[C@@H]2O [paclitaxel], the “% remaining in tumor” value [1, 10] was 39.8 ± 14.2%, the Cmedium [1, 10] was 1.19 ± 0.24 nM and the Ctumor [1, 10] was 0.615 ± :M. The “% remaining in tumor” value [1, 11] was 35.7 ± 18.5%, the Cmedium [1, 11] was 1.60 ± 0.26 nM and the Ctumor [1, 11] was 0.520 ± 0.196 :M. The “T1/2,efflux” value [1, 12] was 5.00 ± 2.93 h, the “% remaining in tumor” value [1, 13] was 25.9 ± 8.3% and the Cmedium [1, 13] was 12.8 ± 3.41 nM. The Ctumor [1, 13] was 5.13 ± :M, the “% remaining in tumor” value [1, 14] was 19.8 ± 6.6% and the Cmedium [1, 14] was 16.7 ± 2.9 nM. For the same compound, the Ctumor [1, 14] was 4.20 ± 1.79 :M, the Cmedium [2, 10] was 0.989 ± 0.228 nM and the Ctumor [2, 10] was 3.88 ± :M. For the same compound, the Cmedium [2, 11] was 1.42 ± 0.18 nM, the Ctumor [2, 11] was 3.84 ± 1.04 :M and the Cmedium [2, 13] was 12.2 ± 1.3 nM. The Ctumor [2, 13] was 23.2 ± :M, the Cmedium [2, 14] was 18.9 ± 5.5 nM and the Ctumor [2, 14] was 17.7 ± 3.7 :M. The “lower accumulation in Pgp-positive vs Pgp-negative patient tumors (average difference)” value [3] was under 25%, the cell layers penetrated ([4]; during the first 24 hours) was 15 cell layers and the cell layers penetrated ([4]; during the second 24 hours) was over 80 cell layers. The “fraction of apoptotic cells” value ([5]; 12 nM, remained relatively constant) was at least 7%, the “fraction of apoptotic cells” value ([5]; 120 nM, at 24 hours) was about 30% and the “fraction of apoptotic cells” value ([5]; 120 nM, at 72 hours) was about 50%. The Apoptotic fraction [6, 15] was 23.6 ± 1.3%, the Cell density [6, 15] was 64.2 ± 3.5 and the Apoptotic fraction [6, 16] was 3.93 ± 0.87%. It also gave a Cell density [6, 16] of 86.3 ± 4.0, an Apoptotic fraction [6, 17] of 24.6 ± 4.8% and a Cell density [6, 17] of 64.3 ± 1.8. The Apoptotic fraction [6, 18] was 4.98 ± 0.84%, the Cell density [6, 18] was 80.2 ± 2.9 and the Apoptotic fraction [6, 19] was 26.6 ± 2.4%. For the same compound, the Cell density [6, 19] was 64.0 ± 5.2, the Apoptotic fraction [6, 20] was 7.32 ± 1.80% and the Cell density [6, 20] was 81.6 ± 2.5. For the same compound, the Apoptotic fraction [6, 21] was 30.1 ± 3.4%, the Cell density [6, 21] was 60.1 ± 4.2 and the Apoptotic fraction [6, 22] was 6.64 ± 1.07%. The Cell density [6, 22] was 79.9 ± 2.1, the Apoptotic fraction [6, 23] was 34.9 ± 5.2% and the Cell density [6, 23] was 62.3 ± 3.1. The Apoptotic fraction [6, 24] was 9.18 ± 1.31%, the Cell density [6, 24] was 77.8 ± 3.0 and the Apoptotic fraction [6, 25] was 31.0 ± 4.4%. The Cell density [6, 25] was 61.0 ± 2.2, the Apoptotic fraction [6, 26] was 11.0 ± 1.7% and the Cell density [6, 26] was 82.6 ± 2.2. It also gave an Apoptotic fraction [6, 27] of 26.3 ± 5.4%, a Cell density [6, 27] of 63.1 ± 4.5 and an Apoptotic fraction [6, 28] of 2.74 ± 0.12%. It also gave a Cell density [6, 28] of 85.8 ± 3.6, an Apoptotic fraction [6, 29] of 36.0 ± 3.9% and a Cell density [6, 29] of 60.8 ± 4.9. For the same compound, the Apoptotic fraction [6, 30] was 7.97 ± 2.03%, the Cell density [6, 30] was 83.9 ± 3.3 and the Apoptotic fraction [6, 31] was 36.4 ± 2.0%. For the same compound, the Cell density [6, 31] was 58.3 ± 1.1, the Apoptotic fraction [6, 32] was 17.0 ± 2.8% and the Cell density [6, 32] was 77.0 ± 3.8. The Apoptotic fraction [6, 33] was 37.4 ± 4.5%, the Cell density [6, 33] was 53.2 ± 2.1 and the Apoptotic fraction [6, 34] was 19.1 ± 2.5%. For the same compound, the Cell density [6, 34] was 71.2 ± 4.6, the Apoptotic fraction [6, 35] was 39.8 ± 3.1% and the Cell density [6, 35] was 53.6 ± 2.4. The Apoptotic fraction [6, 36] was 28.3 ± 2.9%, the Cell density [6, 36] was 68.8 ± 2.5 and the Apoptotic fraction [6, 37] was 37.9 ± 3.4%. It also gave a Cell density [6, 37] of 47.8 ± 3.2, an Apoptotic fraction [6, 38] of 27.2 ± 3.0% and a Cell density [6, 38] of 61.1 ± 2.8. The Apoptotic fraction [6, 39] was 15.2%, the Cell density [6, 39] was 71.3 ± 2.9 and the Apoptotic fraction [6, 40] was 17.0%. It also gave a Cell density [6, 40] of 72.6 ± 3.2, an Apoptotic fraction [6, 41] of 20.3 ± 4.3% and a Cell density [6, 41] of 60.9 ± 1.3. For the same compound, the Apoptotic fraction [6, 42] was 25.4 ± 3.4%, the Cell density [6, 42] was 62.4 ± 4.2 and the “apoptosis caused by pretreatment” value ([6]; 1,000 nM nonradiolabeled paclitaxel for 3 hr, at 24 hr, preliminary study) was about 30%. The Mass balance ([7]; initial Cmedium 12 nM) was 89.3 ± 5.4%, the “Steady state Cmedium” value ([7]; initial Cmedium 12 nM) was 10.6 ± 0.7 nM and the “Steady state Ctumor” value ([7]; initial Cmedium 12 nM) was 1.32 ± 0.31 :M. The Mass balance ([7]; initial Cmedium 120 nM) was 84.5 ± 7.3%, the “Steady state Cmedium” value ([7]; initial Cmedium 120 nM) was 86.4 ± 2.3 nM and the “Steady state Ctumor” value ([7]; initial Cmedium 120 nM) was 2.86 ± 1.28 :M. For the same compound, the Mass balance ([7]; initial Cmedium 1,200 nM) was 85.2 ± 2.5%, the “Steady state Cmedium” value ([7]; initial Cmedium 1,200 nM) was 870 ± 2.6 nM and the “Steady state Ctumor” value ([7]; initial Cmedium 1,200 nM) was 30.1 ± 11.7 :M. For the same compound, the Mass balance ([7]; initial Cmedium 12,000 nM) was 93.3 ± 4.5%, the “Steady state Cmedium” value ([7]; initial Cmedium 12,000 nM) was 10,500 ± 920 nM and the “Steady state Ctumor” value ([7]; initial Cmedium 12,000 nM) was 211 ± 80 :M. For the same compound, the Mass balance ([8]; initial Cmedium 12 nM) was 92.5 ± 5.1%, the “Steady state Cmedium” value ([8]; initial Cmedium 12 nM) was 9.09 ± 0.27 nM and the Mass balance ([8]; initial Cmedium 120 nM) was 86.5 ± 2.8%. For the same compound, the “Steady state Cmedium” value ([8]; initial Cmedium 120 nM) was 89.7 ± 13.3 nM, the Mass balance ([8]; initial Cmedium 1,200 nM) was 89.4 ± 5.7% and the “Steady state Cmedium” value ([8]; initial Cmedium 1,200 nM) was 887 ± 131 nM. The Mass balance ([8]; initial Cmedium 12,000 nM) was 90.2 ± 5.4%, the “Steady state Cmedium” value ([8]; initial Cmedium 12,000 nM) was 8,910 ± 267 nM and the “T1/2,efflux” value ([9]; initial Cmedium 120 nM for 24 hr) was 7.45 ± 3.02 h. For the same compound, the “% remaining in tumor” value [9, 10] was 54.8 ± 3.1%, the Cmedium [9, 10] was 1.13 ± 0.17 nM and the Ctumor [9, 10] was 1.70 ± :M. The “% remaining in tumor” value [9, 11] was 43.3 ± 16.3%, the Cmedium [9, 11] was 1.32 ± 0.14 nM and the Ctumor [9, 11] was 1.19 ± 0.50 :M. The “T1/2,efflux” value [9, 12] was 3.33 ± 2.62 h, the “% remaining in tumor” value [9, 13] was 18.7 ± 6.2% and the Cmedium [9, 13] was 7.69 ± 2.55 nM. For the same compound, the Ctumor [9, 13] was 4.38 ± :M, the “% remaining in tumor” value [9, 14] was 16.0 ± 5.3% and the Cmedium [9, 14] was 10.9 ± 1.1 nM. The Ctumor [9, 14] was 4.17 ± 2.77 :M.
